Laboratory results published in patent US20250221966A1, “RXFP1 AGONISTS” (BRISTOL-MYERS SQUIBB COMPANY, priority 2021, published 2025).

What follows are molecules tested against T1, human RXFP1 (Homo sapiens, UniProt Q9HBX9) (assay: RXFP1 cAMP assay (hRXFP1 HEK293 cAMP assay, HTRF)). Conditions: HEK293 cells stably expressing human RXFP1, 30 min at room temperature, read-out: cAMP hRXFP1 HEK293 Assay EC50.
T1 construct: expressed in transfected cells
T1 sequence (Q9HBX9 1-757): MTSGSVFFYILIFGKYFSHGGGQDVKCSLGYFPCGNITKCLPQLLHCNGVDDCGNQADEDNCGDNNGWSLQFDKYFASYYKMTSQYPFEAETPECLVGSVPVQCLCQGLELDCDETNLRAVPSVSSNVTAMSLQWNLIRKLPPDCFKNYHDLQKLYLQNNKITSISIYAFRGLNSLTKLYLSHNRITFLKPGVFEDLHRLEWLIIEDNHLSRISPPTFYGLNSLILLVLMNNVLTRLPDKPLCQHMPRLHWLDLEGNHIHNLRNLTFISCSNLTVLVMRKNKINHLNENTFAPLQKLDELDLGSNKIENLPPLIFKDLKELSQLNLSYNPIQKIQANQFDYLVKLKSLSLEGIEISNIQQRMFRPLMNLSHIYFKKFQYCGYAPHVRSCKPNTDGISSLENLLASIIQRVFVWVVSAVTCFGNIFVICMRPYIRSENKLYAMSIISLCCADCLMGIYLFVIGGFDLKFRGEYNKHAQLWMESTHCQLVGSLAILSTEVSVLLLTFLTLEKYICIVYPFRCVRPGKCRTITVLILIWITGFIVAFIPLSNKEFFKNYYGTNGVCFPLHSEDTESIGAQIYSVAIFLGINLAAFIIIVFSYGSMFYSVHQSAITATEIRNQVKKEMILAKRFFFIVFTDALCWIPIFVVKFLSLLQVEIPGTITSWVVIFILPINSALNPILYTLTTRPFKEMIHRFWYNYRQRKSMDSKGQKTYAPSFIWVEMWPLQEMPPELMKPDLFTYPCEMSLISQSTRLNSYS
Format: cell-based
In short: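 HEK293 cells stably expressing human RXFP1 were suspended in HBSS (Ca/Mg) with 20 mM HEPES, 0.05% BSA and 0.5 mM IBMX, then treated with compounds (0.010 nM–50 μM, 2% DMSO final) for 30 min at room temperature. Intracellular cAMP was measured by HTRF, and potency was derived from 4-parameter logistic fits.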

EC50 [nM] | SMILES
66.4 | COc1ccc(C2=NOC3COCC23)cc1C(=O)N[C@H]1[C@@H](C(=O)NCC2(c3ccccc3)CC2)[C@H]2CC[C@@H]1/C2=C\C1CC1 (stereo partly drawn) [compound 572]
200 | COc1cc(F)c(F)cc1C(=O)N[C@@H]1C2CCC(/C2=C/c2cccc(Cc3ccccc3)c2)[C@@H]1C(=O)Nc1ccc(F)c(C(F)(F)F)c1 (stereo partly drawn) [compound 49]
128 | COCCOCCOc1ccc(-c2cc(C(=O)O)ccc2F)cc1C(=O)N[C@@H]1C2CCC(/C2=C/c2ccccc2)[C@@H]1C(=O)Nc1ccc(F)c(C(F)(F)F)c1 (stereo partly drawn) [Example 199]
86.6 | COc1ccc(C2=NOC(C)(C)N2C(C)C)cc1C(=O)N[C@H]1[C@@H](C(=O)Nc2ccc(F)c(C(F)(F)F)c2)[C@H]2CC[C@@H]1/C2=C\C1CC1 [Example 591]
8 | COc1ccc(C2=NOC(C(=O)O)C2)cc1C(=O)N[C@@H]1C2CCC(/C2=C/C2CC2)[C@@H]1C(=O)Nc1ccc(F)c(C(F)(F)F)c1 (single isomer, unassigned) [Example 385]
127 | COc1ccc(-c2cncc(C(=O)O)c2)cc1C(=O)N[C@@H]1C2CCC(/C2=C/C(F)(F)F)[C@@H]1C(=O)Nc1ccc(F)c(C(F)(F)F)c1 (stereo partly drawn) [compound 288]
8.5 | COc1ccc(C2=NOC3CC(C(O)C(F)(F)F)CC23)cc1C(=O)N[C@H]1[C@@H](C(=O)Nc2ccc(F)c(C(F)(F)F)c2)[C@H]2CC[C@@H]1/C2=C\C1CC1 (single isomer, unassigned) [Example 489]
190 | COCC1(NC(=O)[C@@H]2[C@H](NC(=O)c3cc(C4=NOC5COCC45)ccc3OC)[C@@H]3CC[C@H]2/C3=C/C2CC2)CCCC1 (stereo partly drawn) [compound 632]
4 | COCC(=O)NC(C(=O)O)c1ccc(F)c(-c2ccc(OC)c(C(=O)N[C@@H]3C4CCC(/C4=C/C(F)(F)F)[C@@H]3C(=O)Nc3ccc(F)c(C(F)(F)F)c3)c2)c1 (stereo partly drawn) [compound 243]
5 | COc1ccc(-c2cc(C(=O)O)ccc2F)cc1C(=O)N[C@H]1[C@@H](C(=O)Nc2ccc(C)c(C(F)(F)F)c2)[C@H]2CC[C@@H]1/C2=C\C1CC1 [Example 265, 3′-(((1R,2R,3S,4R,Z)-7-(cyclopropylmethylene)-3-((4-methyl-3-(trifluoromethyl)phenyl)carbamoyl)bicyclo[2.2.1]heptan-2-yl)carbamoyl)-6-fluoro-4′-methoxy-[1,1′-biphenyl]-3-carboxylic acid]
3.4 | COc1cc(C)c(C2=NOC3CC(CO)CC23)cc1C(=O)N[C@H]1[C@@H](C(=O)Nc2ccc(F)c(C(F)(F)F)c2)[C@H]2CC[C@@H]1/C2=C\C1CC1 (stereo partly drawn) [compound 740]
13 | COc1ccc(C2=NOC3COCC23)cc1C(=O)N[C@H]1[C@@H](C(=O)NC(C)(C)C(C)(C)C)[C@H]2CC[C@@H]1/C2=C\C1CC1 (stereo partly drawn) [compound 508]
4.7 | O=C(N[C@H]1[C@@H](C(=O)Nc2ccc(F)c(C(F)(F)F)c2)[C@H]2CC[C@@H]1/C2=C\C1CC1)c1cc(C2=NOC3COCC23)cc(F)c1OCC1CC1 (stereo partly drawn) [compound 799]
25 | COC(=O)NC(C(=O)O)c1ccc(F)c(-c2ccc(OC)c(C(=O)N[C@@H]3C4CCC(/C4=C/C(F)(F)F)[C@@H]3C(=O)Nc3ccc(F)c(C(F)(F)F)c3)c2)c1 (stereo partly drawn) [compound 186]
720 | COc1cccc(/C=C2\C3CCC2[C@H](C(=O)Nc2ccc(F)c(C(F)(F)F)c2)[C@@H]3NC(=O)c2cc(F)c(F)cc2OC)c1 (stereo partly drawn) [compound 19]
2800 | COC(=O)N1CC=C(c2ccc(OC)c(C(=O)N[C@@H]3C4CCC(C4=C(C)C)[C@@H]3C(=O)Nc3ccc(F)c(C(F)(F)F)c3)c2)CC1 (stereo partly drawn) [compound 143]
1.4 | COc1c(F)cc(C2=NOC3CC(CO)CC23)cc1C(=O)N[C@H]1[C@@H](C(=O)Nc2ccc(F)c(C(F)(F)F)c2)[C@H]2CC[C@@H]1/C2=C\CCC(F)(F)F (stereo partly drawn) [compound 792]
2700 | COc1ccc(-c2ccc(F)nc2F)cc1C(=O)N[C@H]1[C@@H](C(=O)Nc2ccc(F)c(C(F)(F)F)c2)[C@H]2CC[C@@H]1C2=C(C)C [compound 106]
196 | COc1ccc(N2CCCC2=O)cc1C(=O)N[C@H]1[C@@H](C(=O)Nc2ccc(F)c(C(F)(F)F)c2)[C@H]2CC[C@@H]1/C2=C\C1CC1 [compound 636]

EC50 [nM] | SMILES
283 | COc1ccc(-c2cc(C(=O)O)ccc2F)cc1C(=O)N[C@H]1[C@@H](CNc2ccc(F)c(C(F)(F)F)c2)[C@H]2CC[C@@H]1/C2=C\C1CC1 [Example 258, 3′-(((1R,2R,3R,4R,Z)-7-(cyclopropylmethylene)-3-(((4-fluoro-3-(trifluoromethyl)phenyl)amino)methyl)bicyclo[2.2.1]heptan-2-yl)carbamoyl)-6-fluoro-4′-methoxy-[1,1′-biphenyl]-3-carboxylic acid]
966 | COc1cc(C(=O)N[C@H]2[C@@H](C(=O)Nc3ccc(F)c(C(F)(F)F)c3)[C@H]3CC[C@@H]2/C3=C\C2CC2)cc(C2=NOC3COCC23)c1 (single isomer, unassigned) [compound 696]
17.2 | COc1ccc(C2=NOC(C3(O)CCC3)C2)cc1C(=O)N[C@H]1[C@@H](C(=O)Nc2ccc(F)c(C(F)(F)F)c2)[C@H]2CC[C@@H]1/C2=C\C1CC1 (single isomer, unassigned) [compound 515]
3.6 | COc1ccc(-c2cc(C(N)C(=O)O)ccc2F)cc1C(=O)NC1[C@@H]2CC[C@@H](/C2=C/C2CC2)[C@@H]1C(=O)Nc1ccc(F)c(C(F)(F)F)c1 (stereo partly drawn) [compound 969]
11 | COc1ccc(-c2cc(C(NC(C)=O)C(=O)O)ccc2F)cc1C(=O)N[C@@H]1C2CCC(/C2=C/C2CC2)[C@@H]1C(=O)Nc1ccc(F)c(C(F)(F)F)c1 (stereo partly drawn) [compound 184]
1.2 | COc1ccc(C2=NOC3C4CC(C(O)C4O)C23)cc1C(=O)N[C@H]1[C@@H](C(=O)Nc2ccc(F)c(C(F)(F)F)c2)[C@H]2CC[C@@H]1/C2=C\C1CC1 (single isomer, unassigned) [Example 448]
1 | COc1ccc(-c2cc(C(NC(=O)Cc3ccccc3)C(=O)O)ccc2F)cc1C(=O)N[C@@H]1C2CCC(/C2=C/C(F)(F)F)[C@@H]1C(=O)Nc1ccc(F)c(C(F)(F)F)c1 (stereo partly drawn) [compound 240]
210 | COc1cc(F)c(F)cc1C(=O)N[C@@H]1C2CCC(/C2=C/c2cccs2)[C@@H]1C(=O)Nc1ccc(F)c(C(F)(F)F)c1 (stereo partly drawn) [compound 124]
269 | COc1ccc(C2=NOC3COCC23)cc1C(=O)N[C@H]1[C@@H](C(=O)NC2(CO)CCCC2)[C@H]2CC[C@@H]1/C2=C\C1CC1 (stereo partly drawn) [compound 651]
31 | COc1ccc(-c2cnc3c(cnn3CC(=O)O)c2)cc1C(=O)N[C@@H]1C2CCC(/C2=C/C(F)(F)F)[C@@H]1C(=O)Nc1ccc(F)c(C(F)(F)F)c1 (stereo partly drawn) [compound 317]
104 | CCCC/C=C1\C2CCC1[C@H](C(=O)Nc1ccc(F)c(C(F)(F)F)c1)[C@@H]2NC(=O)c1cc(C2=NOC(CC(=O)O)C2)ccc1OC (stereo partly drawn) [compound 395]
2.3 | COc1ccc(C2=NO[C@H]3COC[C@@H]23)cc1C(=O)N[C@H]1[C@@H](C(=O)Nc2ccc(F)c(C(F)(F)F)c2)[C@H]2CC[C@@H]1/C2=C\C1CCCC1 [compound 819]
240 | COC(=O)N1CCN(c2ccc(OC)c(C(=O)NC3C4CCC(C4=Cc4ccccc4)C3C(=O)Nc3ccc(F)c(C(F)(F)F)c3)c2)CC1 (stereo not drawn) [Example 125]
0.9 | COc1ccc(-c2cc(C3=NOC(C(=O)O)C3)ccc2F)cc1C(=O)N[C@H]1[C@@H](C(=O)Nc2ccc(F)c(C(F)(F)F)c2)[C@H]2CC[C@@H]1/C2=C\C1CCCC1 (stereo partly drawn) [compound 946]
2.4 | COc1ccc(-c2cccc3c2CC(=O)N3)cc1C(=O)N[C@H]1[C@@H](C(=O)Nc2ccc(F)c(C(F)(F)F)c2)[C@H]2CC[C@@H]1/C2=C\C1CC1 [compound 890]
22.7 | COc1ccc(C2=NOC3CC(C(O)C(F)(F)F)CC23)cc1C(=O)N[C@H]1[C@@H](C(=O)Nc2ccc(F)c(C(F)(F)F)c2)[C@H]2CC[C@@H]1/C2=C\C1CC1 (single isomer, unassigned) [Example 530]
0.1 | COc1ccc(-c2cc(S(C)(=O)=O)ccc2F)cc1C(=O)N[C@H]1[C@@H](C(=O)Nc2ccc(F)c(C(F)(F)F)c2)[C@H]2CC[C@@H]1/C2=C\C1CCCC1 [compound 907]
3.7 | COc1c(F)cc(C2=NOC3CC(CO)CC23)cc1C(=O)N[C@H]1[C@@H](C(=O)Nc2ccc(F)c(C(F)(F)F)c2)[C@H]2CC[C@@H]1/C2=C\CC(C)C (stereo partly drawn) [compound 796]
3 | COc1ccccc1NC(=O)OC(c1ccc(F)c(-c2ccc(OC)c(C(=O)N[C@@H]3C4CCC(/C4=C/C4CC4)[C@@H]3C(=O)Nc3ccc(F)c(C(F)(F)F)c3)c2)c1)C(F)(F)F (stereo partly drawn) [compound 225]

Same assay, conditions: cAMP hRXFP1 HEK293 Assay EC50, HEK293 cells stably expressing human RXFP1, 30 min at room temperature

EC50 [nM] | SMILES
66 | COc1ccc(-c2ccc(C(=O)O)cc2)cc1C(=O)N[C@H]1[C@@H](C(=O)Nc2ccc(F)c(C(F)(F)F)c2)[C@H]2CC[C@@H]1C2=C(C)C [compound 83]
